GI50 data for 5 molecules are collected here from ChEMBL document CHEMBL1143524, “Anti-tumor abietane diterpenes from the cones of Sequoia sempervirens” (2005).

Assay type in all cases: functional
One assay has as its system MDA-MB-231. Briefly: Growth inhibitory activity against human MDA-MB-231 breast tumor cell line.
A further assay deals with HCT-116. Briefly: Growth inhibitory activity against human HCT116 colon tumor cell line.
The next assay relates to A549. Briefly: Inhibitory activity against human A549 lung tumor cell proliferation.
Another assay concerns SW-620. Briefly: Growth inhibitory activity against human SW620 colon tumor cell line.
A further assay has as its system NCI-H23. Briefly: Growth inhibitory activity against human NCI-H23 lung tumor cell line.
The species named for another assay is Rattus norvegicus. Briefly: Growth inhibitory activity against H-ras transformed rat 2 tumor cell line. Particulars: Rat2.

Molecules are shown by their SMILES. In brackets after ≈: the same amount, converted by molar mass.

What is called GI50 is the concentration at which growth is held to half of that of the control. A higher GI50 goes with lower sensitivity of the cells. As for `CC(C)c1cc2c(cc1O)[C@@]1(C)CCCC(C)(C)[C@@H]1CC2` [FERRUGINOL], the GI50 in the assay on MDA-MB-231, in the assay on HCT-116, with A549, in the assay on SW-620 and with NCI-H23 was below 50 µg/mL in each case.
Take `CC(C)c1cc2c(cc1O)[C@@]1(CO)CCCC(C)(C)[C@@H]1CC2` [PISIFEROL]: the GI50 in the assay listed under Rattus norvegicus is 2.3 µg/mL (≈ 7.6 µM); in the assay on MDA-MB-231 it was 8.34 µg/mL (≈ 27.6 µM); in the assay with HCT-116, 4.34 µg/mL (≈ 14.3 µM); in the assay on A549 it was 2.9 µg/mL (≈ 9.59 µM); in the assay on SW-620, 8.22 µg/mL (≈ 27.2 µM); in the assay with NCI-H23, 2.8 µg/mL (≈ 9.26 µM).
Take `CC(C)c1cc2c(cc1O)[C@@]1(C)CCCC(C)(C)[C@@H]1CC2=O` [SUGIOL]: the GI50 with MDA-MB-231, in the assay with HCT-116, with A549, with SW-620 and in the assay on NCI-H23 was below 50 µg/mL in each case.
As for `CC(C)c1cc2c(cc1O)[C@@]1(C)CCCC(C)(C)[C@@H]1C(O)C2=O` (some centres not stated), the GI50 in the assay listed under Rattus norvegicus was determined as 3.5 µg/mL (≈ 11.1 µM); in the assay with MDA-MB-231 it was 3.64 µg/mL (≈ 11.5 µM); in the assay on HCT-116 it was 2.52 µg/mL (≈ 7.96 µM); in the assay with A549 it was 1.42 µg/mL (≈ 4.49 µM); with SW-620 it was 3.98 µg/mL (≈ 12.6 µM); in the assay on NCI-H23 it was 2.21 µg/mL (≈ 6.98 µM).
As to `CC(C)c1cc2c(cc1O)[C@@]1(C)CCC[C@@](C)(CO)[C@@H]1CC2` [18-HYDROXYFERRUGINOL], the GI50 in the assay with MDA-MB-231, with HCT-116, with A549, in the assay with SW-620 and in the assay with NCI-H23 was below 50 µg/mL in each case.
